Test results: ChEMBL document CHEMBL2203089, “Synthesis of enantiomerically pure perhydro-1,4-diazepine-2,5-dione and 1,4-piperazine-2,5-dione derivatives exhibiting potent activity as apoptosis inhibitors” (Bioorg Med Chem Lett, 2012)
The source made the active and inactive calls. No cut-off for these calls is given here.

Assays:
[1] = Inhibition of Apaf-1-caspase 9-cytochrome c (horse) complex assessed as inhibition of release of afc from […] preincubated for 60 mins before substrate addition by fluorescence assay
[2] = biological target: Apoptotic protease-activating factor 1/Caspase-3/Caspase-9/Cytochrome c (Homo sapiens, UniProt O14727+P42574+P55211+P99999); test: Inhibition of Apaf-1-caspase 9-cytochrome c-caspase 3 complex in human HEK293 cytosolic extract using afc-DEVD as substrate preincubated for 30 mins before substrate addition measured after 30 mins by fluorescence assay
[3] = Inhibition of beta-lactamase

Chain of Apoptotic protease-activating factor 1/Caspase-3/Caspase-9/Cytochrome c (O14727 whole entry): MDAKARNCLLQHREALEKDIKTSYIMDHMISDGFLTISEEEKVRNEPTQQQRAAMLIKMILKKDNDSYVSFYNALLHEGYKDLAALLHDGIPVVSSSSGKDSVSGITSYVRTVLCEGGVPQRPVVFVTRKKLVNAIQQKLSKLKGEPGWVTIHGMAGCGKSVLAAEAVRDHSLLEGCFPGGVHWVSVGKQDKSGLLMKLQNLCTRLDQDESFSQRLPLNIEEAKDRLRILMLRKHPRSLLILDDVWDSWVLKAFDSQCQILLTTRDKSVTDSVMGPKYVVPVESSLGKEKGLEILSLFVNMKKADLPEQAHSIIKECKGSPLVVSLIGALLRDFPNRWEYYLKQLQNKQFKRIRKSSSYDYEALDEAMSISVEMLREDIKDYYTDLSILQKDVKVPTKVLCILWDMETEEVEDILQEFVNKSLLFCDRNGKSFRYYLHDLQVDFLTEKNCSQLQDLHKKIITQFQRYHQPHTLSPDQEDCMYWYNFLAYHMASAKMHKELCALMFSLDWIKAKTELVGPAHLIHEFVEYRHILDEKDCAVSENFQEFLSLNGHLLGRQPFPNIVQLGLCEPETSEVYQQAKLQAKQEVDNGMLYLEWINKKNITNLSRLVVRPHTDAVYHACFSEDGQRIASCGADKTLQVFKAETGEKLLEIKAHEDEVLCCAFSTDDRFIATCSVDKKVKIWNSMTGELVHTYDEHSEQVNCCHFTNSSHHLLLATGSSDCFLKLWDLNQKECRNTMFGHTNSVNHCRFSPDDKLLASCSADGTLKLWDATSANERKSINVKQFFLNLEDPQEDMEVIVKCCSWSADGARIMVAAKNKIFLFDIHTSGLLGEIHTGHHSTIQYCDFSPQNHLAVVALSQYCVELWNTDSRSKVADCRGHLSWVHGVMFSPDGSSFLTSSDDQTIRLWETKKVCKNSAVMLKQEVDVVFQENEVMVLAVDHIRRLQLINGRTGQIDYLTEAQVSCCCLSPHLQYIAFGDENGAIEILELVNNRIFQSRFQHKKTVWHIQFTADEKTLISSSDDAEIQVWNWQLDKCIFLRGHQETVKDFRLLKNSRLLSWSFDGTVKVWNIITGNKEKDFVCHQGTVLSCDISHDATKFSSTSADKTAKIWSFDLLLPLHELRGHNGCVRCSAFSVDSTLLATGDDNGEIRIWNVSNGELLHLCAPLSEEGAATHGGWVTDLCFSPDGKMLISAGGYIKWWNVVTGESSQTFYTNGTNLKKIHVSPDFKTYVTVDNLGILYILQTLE
Chain of Apoptotic protease-activating factor 1/Caspase-3/Caspase-9/Cytochrome c (P42574 29-175 limits assumed): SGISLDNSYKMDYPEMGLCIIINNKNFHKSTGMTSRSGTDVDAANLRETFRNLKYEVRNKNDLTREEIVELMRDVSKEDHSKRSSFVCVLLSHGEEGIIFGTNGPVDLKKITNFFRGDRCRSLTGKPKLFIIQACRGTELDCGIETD
Chain of Apoptotic protease-activating factor 1/Caspase-3/Caspase-9/Cytochrome c (P42574 176-277 limits assumed): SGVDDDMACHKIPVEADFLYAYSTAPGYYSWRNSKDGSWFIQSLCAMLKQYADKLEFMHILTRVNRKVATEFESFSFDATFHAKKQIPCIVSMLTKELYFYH
Chain of Apoptotic protease-activating factor 1/Caspase-3/Caspase-9/Cytochrome c (P55211 1-315 limits assumed): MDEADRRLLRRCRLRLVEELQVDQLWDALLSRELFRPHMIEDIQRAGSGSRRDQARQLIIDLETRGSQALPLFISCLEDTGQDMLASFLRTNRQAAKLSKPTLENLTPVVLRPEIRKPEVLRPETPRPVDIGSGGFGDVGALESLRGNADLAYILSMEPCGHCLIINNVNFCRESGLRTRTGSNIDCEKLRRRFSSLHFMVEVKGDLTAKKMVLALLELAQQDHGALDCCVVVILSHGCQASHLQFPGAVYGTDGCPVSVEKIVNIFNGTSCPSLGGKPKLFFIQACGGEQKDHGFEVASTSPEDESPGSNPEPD
Chain of Apoptotic protease-activating factor 1/Caspase-3/Caspase-9/Cytochrome c (P55211 331-416 limits assumed): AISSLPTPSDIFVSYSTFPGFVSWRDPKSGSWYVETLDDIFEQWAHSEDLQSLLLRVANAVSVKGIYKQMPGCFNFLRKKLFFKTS
Chain of Apoptotic protease-activating factor 1/Caspase-3/Caspase-9/Cytochrome c (P99999 2-105 limits assumed): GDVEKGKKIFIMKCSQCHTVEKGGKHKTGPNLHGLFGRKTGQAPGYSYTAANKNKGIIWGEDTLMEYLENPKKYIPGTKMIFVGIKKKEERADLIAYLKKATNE

Compound	EC50 [1]	EC50 [2]	inhibition [3]
NC(=O)CN(CCc1ccc(Cl)cc1Cl)C(=O)C1CC(=O)N(CCc2ccc(Cl)cc2Cl)CC(=O)N1CCC(c1ccccc1)c1ccccc1 (racemic)	7.9 µM	16.8 µM	
NC(=O)CN(CCc1ccc(Cl)cc1Cl)C(=O)CC1C(=O)N(CCc2ccc(Cl)cc2Cl)CC(=O)N1CCC(c1ccccc1)c1ccccc1 (racemic)	6.2 µM	17 µM	
NC(=O)CN(CCc1ccc(Cl)cc1Cl)C(=O)C[C@@H]1C(=O)N(CCc2ccc(Cl)cc2Cl)CC(=O)N1CCC(c1ccccc1)c1ccccc1	10.6 µM	29.9 µM	inactive
NC(=O)CN(CCc1ccc(Cl)cc1Cl)C(=O)[C@H]1CC(=O)N(CCc2ccc(Cl)cc2Cl)CC(=O)N1CCC(c1ccccc1)c1ccccc1	5 µM	14.4 µM	inactive
NC(=O)CN(CCc1ccc(Cl)cc1Cl)C(=O)C[C@H]1C(=O)N(CCc2ccc(Cl)cc2Cl)CC(=O)N1CCC(c1ccccc1)c1ccccc1	9.6 µM	23.9 µM	inactive
NC(=O)CN(CCc1ccc(Cl)cc1Cl)C(=O)[C@@H]1CC(=O)N(CCc2ccc(Cl)cc2Cl)CC(=O)N1CCC(c1ccccc1)c1ccccc1	3.2 µM	14 µM	inactive
